Assays:
[1] = Solubility of the compound; format: physicochemical
[2] = system: Hepatitis C virus; assay: Antiviral activity against wild type HCV genotype 1b infected in human HuH7 cells after 48 hrs by luciferase reporter gene assay; format: functional, organism-based, Hepacivirus hominis; conditions: Huh-7, 48 h
[3] = system: Hepatitis C virus; assay: Antiviral activity against wild type HCV genotype 1a infected in human HuH7 cells after 48 hrs by luciferase reporter gene assay; format: functional, organism-based, Hepacivirus hominis; conditions: subtype 1a, Huh-7, 48 h
[4] = system: Hepatitis C virus; assay: Displacement of [3H]-3-(1-(3-chloro-6-isopropyl-8-(trifluoromethyl)imidazo[1,2-a]pyridine-2-carbonyl)piperidin-4-yl)oxazolidin-2-one from HCV genotype 1b His6-tagged NS4B expressed in baculovirus infected Sf9 cells after overnight incubation; set-up: species or system Hepatitis C virus subtype 1b
[5] = system: Liver microsomes; assay: Drug metabolism in rat liver microsomes assessed as reactive metabolite formation at 10 uM after 30 mins by glutathione trapping assay; format: ADME, Microsome; conditions: 0.5 h
[6] = target: T1, Cytochrome P450 1A2 (Homo sapiens, UniProt P05177); assay: Inhibition of CYP1A2 in human liver microsomes after 10 mins by LC/MS/MS analysis; format: ADME, Microsome
T1 sequence (P05177 whole entry): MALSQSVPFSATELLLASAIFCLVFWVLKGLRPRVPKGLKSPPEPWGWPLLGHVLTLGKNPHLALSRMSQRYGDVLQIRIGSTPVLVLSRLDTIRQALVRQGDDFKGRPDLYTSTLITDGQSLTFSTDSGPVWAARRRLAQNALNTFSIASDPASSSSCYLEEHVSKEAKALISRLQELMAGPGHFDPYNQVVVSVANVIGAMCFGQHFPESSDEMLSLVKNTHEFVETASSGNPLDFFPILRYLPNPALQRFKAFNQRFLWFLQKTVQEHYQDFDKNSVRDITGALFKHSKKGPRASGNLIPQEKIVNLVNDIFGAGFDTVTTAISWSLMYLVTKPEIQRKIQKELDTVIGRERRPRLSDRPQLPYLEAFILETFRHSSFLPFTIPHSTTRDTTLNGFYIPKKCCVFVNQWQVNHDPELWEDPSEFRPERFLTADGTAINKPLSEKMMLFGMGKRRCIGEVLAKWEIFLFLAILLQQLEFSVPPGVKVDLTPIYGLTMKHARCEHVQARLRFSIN

[7] = Clearance in Sprague-Dawley rat at 1 mg/kg, iv; format: ADME, organism-based; set-up: dose 1 mg/kg, route intravenous; conditions: in vivo
[8] = target: Cytochrome P450 2C9 (Homo sapiens, UniProt P11712); assay: Inhibition of CYP2C9 in human liver microsomes after 10 mins by LC/MS/MS analysis; format: ADME, Microsome
Chain of Cytochrome P450 2C9 (P11712 whole entry): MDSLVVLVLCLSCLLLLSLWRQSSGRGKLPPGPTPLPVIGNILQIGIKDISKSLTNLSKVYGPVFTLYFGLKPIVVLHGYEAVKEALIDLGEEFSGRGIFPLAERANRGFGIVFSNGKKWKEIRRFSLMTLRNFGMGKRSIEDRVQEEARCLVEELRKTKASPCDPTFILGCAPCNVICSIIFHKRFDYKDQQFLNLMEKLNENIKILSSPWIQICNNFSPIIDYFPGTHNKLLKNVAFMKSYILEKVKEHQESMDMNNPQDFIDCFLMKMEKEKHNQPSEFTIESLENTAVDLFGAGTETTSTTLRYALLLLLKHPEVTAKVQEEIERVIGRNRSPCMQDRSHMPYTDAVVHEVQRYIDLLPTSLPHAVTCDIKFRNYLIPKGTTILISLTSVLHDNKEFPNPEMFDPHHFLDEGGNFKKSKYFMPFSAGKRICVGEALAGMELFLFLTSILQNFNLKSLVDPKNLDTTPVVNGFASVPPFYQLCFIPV

[9] = target: Cytochrome P450 2C19 (Homo sapiens, UniProt P33261); assay: Inhibition of CYP2C19 in human liver microsomes after 10 mins by LC/MS/MS analysis; format: ADME, Microsome
Chain of Cytochrome P450 2C19 (P33261 whole entry): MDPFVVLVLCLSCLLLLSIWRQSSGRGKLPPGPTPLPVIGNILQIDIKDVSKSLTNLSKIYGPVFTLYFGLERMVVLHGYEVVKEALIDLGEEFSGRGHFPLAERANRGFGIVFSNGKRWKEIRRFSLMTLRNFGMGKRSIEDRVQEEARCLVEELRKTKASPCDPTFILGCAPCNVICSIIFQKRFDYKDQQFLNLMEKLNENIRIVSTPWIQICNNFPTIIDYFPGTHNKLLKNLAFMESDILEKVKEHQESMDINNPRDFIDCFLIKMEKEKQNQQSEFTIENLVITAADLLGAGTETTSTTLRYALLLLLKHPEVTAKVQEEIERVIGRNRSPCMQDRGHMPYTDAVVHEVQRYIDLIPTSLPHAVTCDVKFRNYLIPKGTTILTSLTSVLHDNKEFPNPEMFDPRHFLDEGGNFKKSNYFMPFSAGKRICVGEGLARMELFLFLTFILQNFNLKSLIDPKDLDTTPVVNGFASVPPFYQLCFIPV

[10] = Half life in Sprague-Dawley rat at 5 mg/kg, po; format: ADME, organism-based; set-up: dose 5 mg/kg, route oral; conditions: in vivo
[11] = system: Liver microsomes; assay: Drug metabolism in human liver microsomes assessed as reactive metabolite formation at 10 uM after 30 mins by glutathione trapping assay; format: ADME, Microsome; conditions: 0.5 h
[12] = target: Cytochrome P450 3A4 (Homo sapiens, UniProt P08684); assay: Inhibition of CYP3A4 in human liver microsomes after 7 mins by LC/MS/MS analysis; format: ADME, Microsome
Chain of Cytochrome P450 3A4 (P08684 whole entry): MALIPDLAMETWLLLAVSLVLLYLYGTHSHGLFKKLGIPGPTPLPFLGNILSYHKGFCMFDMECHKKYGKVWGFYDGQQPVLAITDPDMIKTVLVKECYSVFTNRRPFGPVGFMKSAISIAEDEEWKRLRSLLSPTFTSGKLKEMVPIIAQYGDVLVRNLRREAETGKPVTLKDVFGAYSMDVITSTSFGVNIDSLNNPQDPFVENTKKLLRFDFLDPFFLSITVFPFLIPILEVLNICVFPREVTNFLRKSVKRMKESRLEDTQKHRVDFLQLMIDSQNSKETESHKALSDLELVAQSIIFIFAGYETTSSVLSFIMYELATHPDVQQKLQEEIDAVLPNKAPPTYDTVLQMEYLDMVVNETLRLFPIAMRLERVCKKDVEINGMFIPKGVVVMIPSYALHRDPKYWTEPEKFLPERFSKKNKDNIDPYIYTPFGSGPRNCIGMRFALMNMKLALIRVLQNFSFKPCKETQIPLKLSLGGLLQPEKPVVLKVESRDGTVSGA

[13] = target: Cytochrome P450 2D6 (Homo sapiens, UniProt P10635); assay: Inhibition of CYP2D6 in human liver microsomes after 10 mins by LC/MS/MS analysis; format: ADME, Microsome
Chain of Cytochrome P450 2D6 (P10635 whole entry): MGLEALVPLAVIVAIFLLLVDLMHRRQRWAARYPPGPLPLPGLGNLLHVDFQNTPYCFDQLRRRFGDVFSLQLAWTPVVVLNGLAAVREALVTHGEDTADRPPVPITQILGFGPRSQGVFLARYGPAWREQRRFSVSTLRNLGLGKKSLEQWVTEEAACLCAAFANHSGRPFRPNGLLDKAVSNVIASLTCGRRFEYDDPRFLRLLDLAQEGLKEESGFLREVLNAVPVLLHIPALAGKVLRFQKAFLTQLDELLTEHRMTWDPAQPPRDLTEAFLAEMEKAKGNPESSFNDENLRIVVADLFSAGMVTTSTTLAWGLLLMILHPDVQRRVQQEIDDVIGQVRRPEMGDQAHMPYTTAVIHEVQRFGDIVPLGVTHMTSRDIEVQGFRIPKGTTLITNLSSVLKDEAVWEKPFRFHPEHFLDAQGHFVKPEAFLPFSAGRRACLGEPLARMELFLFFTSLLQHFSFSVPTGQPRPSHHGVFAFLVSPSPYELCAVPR

[14] = Oral bioavailability in Sprague-Dawley rat at 5 mg/kg; format: ADME, organism-based; conditions: in vivo
[15] = AUC (0 to 24 hrs) in Sprague-Dawley rat at 5 mg/kg, po; format: ADME, organism-based; set-up: time < 24 hr, dose 5 mg/kg, route oral; conditions: plasma
[16] = Volume of distribution at steady state in Sprague-Dawley rat at 1 mg/kg, iv; format: ADME, organism-based; set-up: dose 1 mg/kg, route intravenous; conditions: in vivo, read-out: Vdss
[17] = system: Hepatocyte; assay: Drug metabolism in rat hepatocytes assessed as pendant cyclohexyl oxidation; format: ADME, cell-based
[18] = system: Hepatocyte; assay: Drug metabolism in human hepatocytes assessed as pendant cyclohexyl oxidation; format: ADME, cell-based
[19] = system: Hepatitis C virus; assay: Binding affinity to HCV genotype 1b His6-tagged NS4B expressed in baculovirus infected Sf9 cells after overnight incubation; conditions: Hepatitis C virus subtype 1b, tested as the 3H-labelled form

| Compound | solubility [1] [µM] | EC50 [2] [nM] | EC50 [3] [nM] | IC50 [4] [nM] | also measured |
| --- | --- | --- | --- | --- | --- |
| O=C(c1nc2c(C(F)(F)F)cc(-c3ccoc3)cn2c1Cl)N1CCC(N2CCCC2)CC1 | > 500 | > 50000 | > 50000 | > 50000 | – |
| O=C(c1nc2c(C(F)(F)F)cc(-c3ccoc3)cn2c1Cl)N1CCC(c2ccncc2)C1 (racemic) | – | 270 | 380 | 25 | – |
| O=C(c1nc2c(C(F)(F)F)cc(-c3ccoc3)cn2c1Cl)N1CCC(N2CCOC2=O)CC1 | > 500 | 18 | 7.4 | 150 | Drug metabolism [5]: Not Active; inhibition (INH) [6]: Not Active; clearance [7]: 72 mL/min/kg; inhibition (INH) [8]: Not Active; inhibition (INH) [9]: Not Active; half-life [10]: 1.9 h; Drug metabolism [11]: Not Active; inhibition (INH) [12]: Not Active; inhibition (INH) [13]: Not Active; bioavailability [14]: 60%; AUC(0-t) at 24 h [15]: 700 ng·h/mL; Vd [16]: 2.5 L/kg |
| CC1(C)CN(C2CCN(C(=O)c3nc4c(C(F)(F)F)cc(-c5ccoc5)cn4c3Cl)CC2)C(=O)O1 | > 500 | 76000 | 9900 | 220 | – |
| O=C(c1nc2c(C(F)(F)F)cc(-c3ccoc3)cn2c1Cl)N1CCC(c2ccccc2F)C1 (racemic) | < 15 | 78 | 680 | 5.4 | – |
| O=C(c1nc2c(C(F)(F)F)cc(-c3ccoc3)cn2c1Cl)N1CCC(c2cccs2)C1 (racemic) | < 15 | 67 | 770 | 12 | – |
| CN1CCN(C(=O)c2nc3c(C(F)(F)F)cc(-c4ccoc4)cn3c2Cl)CC1=O | > 500 | 36000 | 18000 | 1200 | – |
| O=C(c1nc2c(C(F)(F)F)cc(-c3ccoc3)cn2c1Cl)N1CCN(c2ccccc2)CC1 | – | 1600 | 450 | 20 | – |
| O=C(c1nc2c(C(F)(F)F)cc(-c3ccoc3)cn2c1Cl)N1CCN(C2CCCCC2)C(=O)C1 | > 500 | 3.5 | 11 | 5.6 | Drug metabolism [17]: Active; Drug metabolism [18]: Active |
| CC(C)c1cc(C(F)(F)F)c2nc(C(=O)N3CCC(N4CCOC4=O)CC3)c(Cl)n2c1 | – | < 55 | < 55 | – | Kapp [19]: 30 nM |
| O=C(c1nc2c(C(F)(F)F)cc(-c3ccoc3)cn2c1Cl)N1CCC(N2C(=O)COC2=O)CC1 | > 500 | 51 | 20 | 35 | clearance [7]: 46 mL/min/kg; half-life [10]: 3 h; bioavailability [14]: 60%; AUC(0-t) at 24 h [15]: 1100 ng·h/mL; Vd [16]: 3.1 L/kg |

Source: ChEMBL document CHEMBL2169754, “Imidazo[1,2-a]pyridines That Directly Interact with Hepatitis C NS4B: Initial Preclinical Characterization” (ACS Med Chem Lett, 2012)
